In BindingDB's records for doi:10.1021/jm010469k (Agouron Pharmaceuticals, 2002):

Columns and labels:
[1] = antirhinoviral activity against HRV Protease 3CP (serotype 10)
[2] = antirhinoviral activity against HRV Protease 3CP (serotype 1A)
[3] = antirhinoviral activity against HRV Protease 3CP (serotype 14)
[4] = antirhinoviral activity against HRV Protease 3CP (serotype 78)
[5] = antirhinoviral activity against HRV Protease 3CP (serotype 16)
[6] = antirhinoviral activity against HRV Protease 3CP (serotype 13)
[7] = antirhinoviral activity against HRV Protease 3CP (serotype 25)
[8] = antirhinoviral activity against HRV Protease 3CP (serotype 11)
[9] = antirhinoviral activity against HRV Protease 3CP (serotype 3)
[10] = antirhinoviral activity against HRV Protease 3CP (serotype 39)
[11] = antirhinoviral activity against HRV Protease 3CP (serotype 19)
[12] = antirhinoviral activity against HRV Protease 3CP (serotype 1A); remark: listed apart in the source
[13] = antirhinoviral activity against HRV Protease 3CP (serotype 23)
[14] = antirhinoviral activity against HRV Protease 3CP (serotype Hanks)
[15] = antirhinoviral activity against HRV Protease 3CP (serotype 10); remark: listed apart in the source
[16] = antirhinoviral activity against HRV Protease 3CP (serotype 9)
[17] = antirhinoviral activity against HRV Protease 3CP (serotype 2)
[18] = antirhinoviral activity against Human Rhinovirus Protease 3C (serotype 1A)
[19] = antirhinoviral activity against Human Rhinovirus Protease 3C (serotype 10)
[20] = antirhinoviral activity against Human Rhinovirus Protease 3C (serotype 14)

Question: What does the source list for `CCOC(=O)/C=C/[C@H](C[C@@H]1CCNC1=O)NC(=O)[C@H](Cc1ccc(F)cc1)n1cccc(NC(=O)c2cc(C)on2)c1=O` [4-(3-(4-Fluoro-phenyl)-2-{3-[(5-methyl-isoxazole-3-carbonyl)-amino]-2-oxo-2H-pyridin-1-yl}-propionylamino)-5-(2-oxo-pyrrolidin-3-yl)-pent-2-enoic acid ethyl ester]?
Answer: EC50 [1]: 4 nM; EC50 [2]: 15 nM

Question: With `CCOC(=O)/C=C/[C@H](C[C@@H]1CCNC1=O)NC(=O)[C@H](Cc1ccccc1)n1cccc(NC(=O)OCc2ccccc2)c1=O` [4-[2-(3-Benzyloxycarbonylamino-2-oxo-2H-pyridin-1-yl)-3-phenyl-propionylamino]-5-(2-oxo-pyrrolidin-3-yl)-pent-2-enoic acid ethyl ester] as the compound, how does the EC50 [3] read?
Answer: 3 nM

Question: Which results are given for `Cc1cc(C(=O)Nc2cccn([C@@H](Cc3ccc(F)c(F)c3)C(=O)N[C@H](/C=C/C(=O)OC(C)C)C[C@@H]3CCNC3=O)c2=O)no1` [(1S,5S)-4-((S)-3-(3,4-Difluoro-phenyl)-2-{3-[(5-methyl-isoxazole-3-carbonyl)-amino]-2-oxo-2H-pyridin-1-yl}-propionylamino)-5-(2-oxo-pyrrolidin-3-yl)-pent-2-enoic acid isopropyl ester]?
Answer: EC50 [4]: 12 nM; EC50 [5]: 36 nM; EC50 [6]: 44 nM; EC50 [7]: 100 nM; EC50 [8]: 3 nM; EC50 [9]: 33 nM; EC50 [10]: 44 nM; EC50 [11]: 9 nM; EC50 [12]: 132 nM; EC50 [3]: 3 nM; EC50 [13]: 10 nM; EC50 [14]: 3 nM; EC50 [15]: 85 nM; EC50 [16]: 109 nM; EC50 [17]: 48 nM

Question: For `CCOC(=O)/C=C/[C@H](CCC(N)=O)NC(=O)[C@H](Cc1ccc(F)c(F)c1)n1cccc(NC(=O)OCc2ccccc2)c1=O` [4-[2-(3-Benzyloxycarbonylamino-2-oxo-2H-pyridin-1-yl)-3-(3,4-difluoro-phenyl)-propionylamino]-6-carbamoyl-hex-2-enoic acid ethyl ester], which EC50 [1] is on record?
Answer: 32 nM

Question: And the EC50 [2]?
Answer: 513 nM

Question: With `CCOC(=O)/C=C/[C@H](CCC(N)=O)NC(=O)[C@H](Cc1ccccc1)n1cccc(NC(=O)OCc2ccccc2)c1=O` [(E)-(S)-4-[(S)-2-(3-Benzyloxycarbonylamino-2-oxo-2H-pyridin-1-yl)-3-phenyl-propionylamino]-6-carbamoyl-hex-2-enoic acid ethyl ester] as the compound, how does the EC50 [18] read?
Answer: 1250 nM

Question: And the EC50 [19]?
Answer: 372 nM

Question: What about the EC50 [20] of the same compound?
Answer: 33 nM

Question: Which EC50 [1] does the source give for `CCOC(=O)/C=C/[C@H](CCC(N)=O)NC(=O)[C@H](Cc1ccccc1)n1cccc(NC(=O)C2SCCS2)c1=O` [6-Carbamoyl-4-(2-{3-[([1,3]dithiolane-2-carbonyl)-amino]-2-oxo-2H-pyridin-1-yl}-3-phenyl-propionylamino)-hex-2-enoic acid ethyl ester] here?
Answer: 1410 nM

Question: And the EC50 [2]?
Answer: 1180 nM

Question: Which results are given for `CCOC(=O)/C=C/[C@H](CCC(N)=O)NC(=O)[C@H](Cc1ccc(F)cc1)n1cccc(NC(=O)OCc2ccccc2)c1=O` [4-[2-(3-Benzyloxycarbonylamino-2-oxo-2H-pyridin-1-yl)-3-(4-fluoro-phenyl)-propionylamino]-6-carbamoyl-hex-2-enoic acid ethyl ester]?
Answer: EC50 [1]: 111 nM; EC50 [2]: 607 nM

Question: Which results are given for `CCOC(=O)/C=C/[C@H](C[C@@H]1CCNC1=O)NC(=O)[C@H](Cc1ccc(F)c(F)c1)n1cccc(NC(=O)c2cc(C)on2)c1=O` [(1S,5S)-4-((S)-3-(3,4-Difluoro-phenyl)-2-{3-[(5-methyl-isoxazole-3-carbonyl)-amino]-2-oxo-2H-pyridin-1-yl}-propionylamino)-5-(2-oxo-pyrrolidin-3-yl)-pent-2-enoic acid ethyl ester]?
Answer: EC50 [1]: 5 nM; EC50 [2]: 6 nM
